Where two headings read alike, the source gives them in different places.
Tests used:
Influenza A: PR8 strain = experiment: microbe, parasite or virus in culture; type: cell-based, Influenza A virus
Hepatitis B Virus (HBV) = experiment: HBV replication in 2.2.15 cell culture, 9-day assay; type: cell-based; details: for EC50 / EC90: Hepatitis B virus, 2.2.15 cells
Description: Anti-Hepatitis B Virus (HBV) analyses and an assessment of cytotoxicity were performed in a 9-day assay in the chronically-producing HBV human hepatoblastoma cell line, 2.2.15, as previously described (Korba, B. E. & Gerin, J. L. Use of a standardized cell culture assay to assess activities of nucleosides analogues against hepatitis B virus replication. Antivir. Res. 19, 55-70 (1992)).
Values presented (±standard deviations [S.D.]) were calculated by linear regression analysis using data combined from all treated cultures. S.D. were calculated using the standard error of regression generated from linear regression analyses (QuattroPro™). EC50, EC90=drug concentration at which a 2-fold, or a 10-fold depression of HBV DNA (relative to the average levels in untreated cultures), respectively, was observed, CC50=drug concentration at which a 2-fold depression of neutral red dye uptake (relative to the average levels in untreated cultures) was observed, The EC90 values were used for the calculation of the Selectivity Indexes [S.I.] since at least a 3-fold depression of HBV levels is typically required to achieve statistical significance in this assay system. HBV R.I.=intracellular HBV DNA replication intermediate.

clostridia = experiment: organism not typed; type: cell-based; details: Clostridia (18 isolates), agar dilution, 48 h
[1] = tested on: Paramyxovirus: Sendai virus; experiment: microbe, parasite or virus in culture; type: cell-based; details: Sendai virus, 37RC cell culture (Table 1)

Q: What does the source list for CC(=O)Oc1c(C)cccc1C(=O)Nc1ncc(Br)s1 [RM-4803, 2-(acetolyloxy)-3-methyl-N-(5-bromo-2-thiazolyl)benzamide]?
A: SI (selectivity index) = CC50/EC50 (Influenza A: PR8 strain; Influenza A PR8 strain, MDCK cell culture, CC50 by MTT): > 50; EC50 (Influenza A: PR8 strain; Influenza A virus, PR8, MDCK): 2.8 µM; EC50 (Hepatitis B Virus (HBV); 2-fold depression of HBV DNA, read-out: Extracellular Virion DNA EC50): 6.3 ± 0.7 µM; EC90 (Hepatitis B Virus (HBV); 10-fold depression of HBV DNA, read-out: Extracellular Virion DNA EC90): 15 ± 1.1 µM; EC50 (Hepatitis B Virus (HBV); intracellular HBV DNA replication intermediate, 2-fold depression, read-out: Intracellular HBV R.I. EC50): 12 ± 1.5 µM; EC90 (Hepatitis B Virus (HBV); intracellular HBV DNA replication intermediate, 10-fold depression, read-out: Intracellular HBV R.I. EC90): 50 ± 5.5 µM; Selectivity Index R.I. (Hepatitis B Virus (HBV); calculated with EC90 values (CC50/EC90), HBV R.I.): >20; Selectivity Index Virion (Hepatitis B Virus (HBV); calculated with EC90 values (CC50/EC90), virion DNA): >67; MIC50 (clostridia; read-out: MIC50): > 32 µg/mL; MIC90 (clostridia; read-out: MIC90): > 32 µg/mL; EC50 ([1]; Respirovirus muris): 1.1 µM; SI (selectivity index) = CC50/EC50 ([1]; CC50 by MTT): > 125

Source: US7285567B2, “Halogenated benzamide derivatives” (Romark Laboratories, L.C., priority 2005, dated 2007)
